Experimental data from patent US20190218226A1, “PRODRUGS OF ANTICANCER AGENTS INDOTECAN AND INDIMITECAN” (Purdue Research Foundation, priority 2016, published 2019).

How the values were obtained:
HOP-62 = assay: NCI60 antiproliferative screen, lung HOP-62; format: cell-based, human; settings: HOP-62, 48 h, sulforhodamine B; read-out: Cytotoxicity (GI50) lung HOP-62
In short: (§1)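 SRB read-out after 48 h exposure; five concentrations, 0.01–100 μM in tenfold steps. Percent growth vs control plotted against log10 conc; GI50 by interpolation across 50% growth.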

SF-539 = assay: NCI60 antiproliferative screen, CNS SF-539; format: cell-based, human; settings: SF-539, 48 h, sulforhodamine B; read-out: Cytotoxicity (GI50) CNS SF-539
In short: as §1

UACC-62 = assay: NCI60 antiproliferative screen, melanoma UACC-62; format: cell-based, human; settings: UACC-62, 48 h, sulforhodamine B; read-out: Cytotoxicity (GI50) melanoma UACC-62
In short: as §1

OVCAR-3 = assay: NCI60 antiproliferative screen, ovarian OVCAR-3; format: cell-based, human; settings: OVCAR-3, 48 h, sulforhodamine B; read-out: Cytotoxicity (GI50) Ovarian OVCAR-3
In short: as §1

SN12C = assay: NCI60 antiproliferative screen, renal SN12C; format: cell-based, human; settings: 48 h, sulforhodamine B, read-out: Cytotoxicity (GI50) renal SN12C
In short: as §1

DU-145 = assay: NCI60 antiproliferative screen, prostate DU-145; format: cell-based, human; settings: DU-145, 48 h, sulforhodamine B; read-out: Cytotoxicity (GI50) prostate DU-145
In short: as §1

[1] = tested on: all human cancer cell lines successfully tested (NCI60); assay: NCI60 mean graph midpoint for growth inhibition; format: cell-based; settings: all human cancer cell lines successfully tested; ± standard error; read-out: MGM (mean graph midpoint for growth inhibition)
In short: as §1

[2] = Stability of compound 17 in cell culture medium; format: physicochemical; settings: 10 μM, cell-free RPMI 1640 medium, 37° C., after 99 hours
Description: In order to investigate the possibility that hydrolysis of the prodrugs takes place extracellularly rather than intracellularly, compound 17 was added to cell-free cell culture medium and the mixture was incubated at 37° C. Relatively slow conversion to the parent phenol 9 was observed, with 22% conversion after 99 hours.
Stability of Compound 17 in Cell Culture Medium.
RPMI 1640 medium was purchased from Sigma-Aldrich (St. Louis, Mo.). Compound 17 (10 μM) was incubated at 37° C. with RPMI 1640 medium. After 99 h, an aliquot was taken from the incubation mixture and filtered prior to analysis using LC-MS (Waters, Germany). The flow rate was 0.75 mL/min and the eluent was recorded with a DAD at 280 nm.

COC(=O)CCC(=O)Oc1cc2c(=O)n(CCCN3CCOCC3)c3c(c2cc1OC)C(=O)c1cc2c(cc1-3)OCO2 [Compound 17, 2-Methoxy-6-(3-morpholinopropyl)-5,12-dioxo-6,12-dihydro-5H-[1,3]dioxolo[4′,5′:5,6]indeno[1,2-c]isoquinolin-3-yl Methyl Succinate]
GI50 (HOP-62): 16 nM
GI50 (SF-539): < 10 nM
GI50 (UACC-62): 18 nM
GI50 (OVCAR-3): 37 nM
GI50 (SN12C): < 10 nM
GI50 (DU-145): 14 nM
mean GI50 across NCI60 cell lines (MGM) [1]: 36 ± 18 nM
conversion to the parent phenol 9 [2]: 22%
